Here are results for two molecules from paper PMC12655819 (Pharmaceuticals, 2025).

Data set [1] in a line: Stability of analytes in dried saliva Mitra VAMS tips. Format: physicochemical. To be noted: n=6; for recovery at 1 week / recovery at 2 weeks / recovery at 24 hours / recovery at 3 days: dried saliva on Mitra VAMS tips, room temperature (light-protected with desiccant); for stability, mean recovery: room temperature (with daily light exposure). As for the experimental part:
Stability testing, a crucial component of method development and validation, was conducted through various experiments, including storage stability in the autosampler and stability of analytes in VAMS tips under different stress conditions. Analyte stability is deemed acceptable if the differences stay within the nominal range of ±15%. Additionally, the reproducibility of the injection was assessed during autosampler stability testing.

For data set [2] the following is noted: cited from earlier work.

As for `COc1c(C)c2c(c(O)c1C/C=C(\C)CCC(=O)O)C(=O)OC2` [MPA, Mycophenolic acid], the recovery at 1 week in data set [1] (HQC, 1 week) was 97.2%; in data set [1] (LQC, 1 week), 98%. The recovery at 2 weeks in data set [1] (HQC, 2 weeks) came to 96%; in data set [1] (LQC, 2 weeks) it was 95.6%. Further, the recovery at 24 hours turned out to be 99.9% in data set [1] (HQC, 24 hours) and 101% in data set [1] (LQC, 24 hours). Also, the recovery at 3 days in data set [1] (HQC, 3 days) came out at 100%; in data set [1] (LQC, 3 days), 99.1%. For the same molecule, the “increase in free fraction” value in data set [2] (displacement by MPAG in severe renal impairment) was 7%. Also, the “affinity for plasma proteins (binding)” value in data set [2] (general statement of the introduction) was 97–99%. Further, the “time of peak plasma concentration after administration” value in data set [2] is 1 to 2 h. For the same molecule, the unbound fraction in data set [2] (typical range) was 1 to 2.5%.

With `COc1c(C)c2c(c(O[C@@H]3O[C@H](C(=O)O)[C@@H](O)[C@H](O)[C@H]3O)c1C/C=C(\C)CCC(=O)O)C(=O)OC2` [MPAG, mycophenolic acid glucuronide], the “stability, mean recovery” value came to 96.66% in data set [1] (HQC, 1 week); 94.51% in data set [1] (HQC, 2 weeks); 100.16% in data set [1] (HQC, 24 hours); 98.94% in data set [1] (HQC, 3 days); 99.67% in data set [1] (LQC, 1 week); 97.25% in data set [1] (LQC, 2 weeks). The “stability, mean recovery” value in data set [1] (LQC, 24 hours) is on record as 103.15%; in data set [1] (LQC, 3 days), 100.46%. Also, in data set [2] (patients with severe renal impairment, up), the “increase of concentration in severe renal impairment” value was 3–6 fold. Also, the “time of peak plasma concentration after administration” value in data set [2] is 1 to 4 h. In addition, the binding to albumin result in data set [2] (stable transplant recipients) was “approximately 82%”.
